Experimental data taken from patent US20120213855A1, “DOSAGE FORMS FOR WEAKLY IONIZABLE COMPOUNDS” (CIMA LABS INC., priority 2011, published 2012).

How the values were obtained:
[1] = In vitro dissolution in 900 mL DI water, USP type 2 apparatus (Example 3); assay type: physicochemical; conditions: 37° C., 50 rpm, 15 mg meloxicam, when introduced to the dissolution medium
Method: Dissolution was performed in 900 mL of DI water. Dissolution studies were conducted in a USP type 2 apparatus (Varian Inc., Cary, N.C.). Paddle speed and bath temperature were set to 50 rpm and 37° C., respectively. Samples (5 mL) were withdrawn at 5, 10, 15, 30, 45, and 60 minutes and analyzed by UV spectroscopic methods at 360 nm (Varian Cary, Australia). Dissolution experiment was performed in duplicates unless otherwise specified.

[2] = In vivo dog study, serum pharmacokinetics by LC/MS/MS (Example 4)
Method: Both formulations were administered orally.
For each formulation 4 or 5 dogs were studied. Prior to administration, the animals were fasted overnight and approximately 2 hours post-dose, the animals had access to regular rations for the remaining portion of the study. The animals were dosed multiple times over the course of the study with at least a two-week recovery period between dosing phases. Each formulation was administered as a single dose, with the intravenous dosages occurring in the cephalic vein.
Blood samples were collected from the cephalic or saphenous veins. The samples were stored at room temperature for about 1 hour or until being processed for serum. The samples were centrifuged at 3200 RPM for 10 minutes at 22-26° C. Serum samples were stored at 4±5° C. until analyzed.
The samples were evaluated using LC/MS/MS.

[3] = In vivo human study, pharmacokinetics in healthy volunteers (Example 7)
Method: The study consisted of a total of eighteen healthy adult volunteers (male and female). Testing was conducted over three phases, with a minimum fourteen day washout period between each phase of the study. Test formulation A and C were randomly dosed during phases 1 and 2, while test formulation B was dosed entirely during phase 3. […] Each formulation was administered as a single dose, with approximately 240 mL of room temperature water.
Twenty-seven blood samples per subject per phase were collected at various time points over the course of 96 hours following dosing. Pharmacokinetic sampling occurred within 90 minutes prior to dosing (0 hour) and after dose administration at 0.5, 1, 1.5, 2, 2.5, 3, 3.5, 4, 4.5, 5, 5.5, 6, 6.5, 7, 7.5, 8, 8.5, 9, 9.5, 10, 12, 16, 24, 48, 72, and 96 hours. The samples were stored at room temperature for about 1 hour or until being processed for serum. The samples were centrifuged at 3000 RPM for 10 minutes at 4° C. (±10° C.). Serum samples were stored at −20±10° C. until analyzed.
The samples were evaluated using a validated bioanalytical method and according to the Bioanalytical Laboratory's Standard Operating Procedures and FDA guidelines.

## Cc1cnc(NC(=O)C2=C(O)c3ccccc3S(=O)(=O)N2C)s1 [Meloxicam, 4-hydroxy-2-methyl-N-(5-methyl-2-thiazolyl)-2H-1,2-benzothiazine-3-carboxamide-1,1-dioxide]
[1]
  meloxicam dissolved in water: 12%
[2]
  elimination phase: slow elimination phase
[3]
  elimination phase: slow elimination phase
